From the NIST ThermoML archive (doi:10.1021/je400250u)

Tests used:
[1] = xn = mol fraction of the nth substance listed; conditions: 100 kPa, Liquid; for viscosity: Capillary tube (Ostwald / Ubbelohde) method; for mass density: Vibrating tube method
[2] = refractive index (Na D-line) (dimensionless); xn = mol fraction of the nth substance listed; conditions: 100 kPa, Liquid, Standard Abbe refractometry

C1CC[C@H]2CCCC[C@H]2C1 [cis-decahydronaphthalene] + CCCCCCCCCCC
Conditions	mass density, [1] [kg/m3]	refractive index, [2]	viscosity, [1] [mPa·s]
293.15 K, x1 = 0.1086	753.22	–	1.24
293.15 K, x1 = 0.2072	765.62	–	1.31
293.15 K, x1 = 0.3066	778.83	–	1.415
293.15 K, x1 = 0.4031	792.39	–	1.542
293.15 K, x1 = 0.5028	807.23	–	1.69
293.15 K, x1 = 0.5976	822.17	–	1.829
293.15 K, x1 = 0.6835	836.42	–	2.021
293.15 K, x1 = 0.7983	856.82	–	2.368
293.15 K, x1 = 0.8954	875.37	–	2.726
293.15 K, x1 = 1	896.85	–	3.355
298.15 K, x1 = 0.1086	749.55	1.4192	1.148
298.15 K, x1 = 0.2072	761.95	1.4242	1.208
298.15 K, x1 = 0.3066	775.16	1.4294	1.3
298.15 K, x1 = 0.4031	788.74	–	1.415
298.15 K, x1 = 0.4075	–	1.4352	–
298.15 K, x1 = 0.5028	803.55	–	1.554
298.15 K, x1 = 0.5059	–	1.4411	–
298.15 K, x1 = 0.592	–	1.4469	–
298.15 K, x1 = 0.5976	818.48	–	1.67
298.15 K, x1 = 0.6835	832.71	1.4532	1.84
298.15 K, x1 = 0.7983	853.1	1.4609	2.139
298.15 K, x1 = 0.8954	871.62	1.4686	2.458
298.15 K, x1 = 1	893.06	1.4776	3.011
303.15 K, x1 = 0.1086	745.85	–	1.062
303.15 K, x1 = 0.2072	758.26	–	1.112
303.15 K, x1 = 0.3066	771.47	–	1.201
303.15 K, x1 = 0.4031	785.05	–	1.326
303.15 K, x1 = 0.5028	799.85	–	1.424
303.15 K, x1 = 0.5976	814.77	–	1.53
303.15 K, x1 = 0.6835	828.99	–	1.682
303.15 K, x1 = 0.7983	849.36	–	1.949
303.15 K, x1 = 0.8954	867.86	–	2.233
303.15 K, x1 = 1	889.26	–	2.718
308.15 K, x1 = 0.1086	742.15	1.4151	0.977
308.15 K, x1 = 0.2072	754.56	1.4198	1.034
308.15 K, x1 = 0.3066	767.77	1.4251	1.111
308.15 K, x1 = 0.4031	781.35	–	1.215
308.15 K, x1 = 0.4075	–	1.431	–
308.15 K, x1 = 0.5028	796.14	–	1.307
308.15 K, x1 = 0.5059	–	1.4366	–
308.15 K, x1 = 0.592	–	1.4426	–
308.15 K, x1 = 0.5976	811.05	–	1.41
308.15 K, x1 = 0.6835	825.27	1.4487	1.546
308.15 K, x1 = 0.7983	845.62	1.4565	1.818
308.15 K, x1 = 0.8954	864.1	1.464	2.035
308.15 K, x1 = 1	885.46	1.4736	2.47
313.15 K, x1 = 0.1086	738.44	–	0.903
313.15 K, x1 = 0.2072	750.84	–	0.962
313.15 K, x1 = 0.3066	764.05	–	1.034
313.15 K, x1 = 0.4031	777.64	–	1.115
313.15 K, x1 = 0.5028	792.42	–	1.204
313.15 K, x1 = 0.5976	807.33	–	1.303
313.15 K, x1 = 0.6835	821.53	–	1.426
313.15 K, x1 = 0.7983	841.87	–	1.673
313.15 K, x1 = 0.8954	860.33	–	1.859
313.15 K, x1 = 1	881.65	–	2.252
318.15 K, x1 = 0.1086	734.71	1.4114	0.843
318.15 K, x1 = 0.2072	747.12	1.416	0.899
318.15 K, x1 = 0.3066	760.33	1.4213	0.964
318.15 K, x1 = 0.4031	773.91	–	1.038
318.15 K, x1 = 0.4075	–	1.4275	–
318.15 K, x1 = 0.5028	788.7	–	1.119
318.15 K, x1 = 0.5059	–	1.4331	–
318.15 K, x1 = 0.592	–	1.4383	–
318.15 K, x1 = 0.5976	803.6	–	1.209
318.15 K, x1 = 0.6835	817.79	1.4448	1.319
318.15 K, x1 = 0.7983	838.11	1.4536	1.505
318.15 K, x1 = 0.8954	856.55	1.4612	1.71
318.15 K, x1 = 1	877.85	1.4696	2.063
323.15 K, x1 = 0.1086	730.98	–	0.786
323.15 K, x1 = 0.2072	743.39	–	0.841
323.15 K, x1 = 0.3066	756.6	–	0.9
323.15 K, x1 = 0.4031	770.18	–	0.97
323.15 K, x1 = 0.5028	784.96	–	1.043
323.15 K, x1 = 0.5976	799.86	–	1.124
323.15 K, x1 = 0.6835	814.05	–	1.225
323.15 K, x1 = 0.7983	834.35	–	1.392
323.15 K, x1 = 0.8954	852.77	–	1.577
323.15 K, x1 = 1	874.05	–	1.898

C1CC[C@H]2CCCC[C@@H]2C1 [trans-decahydronaphthalene] + CCCCCCCCC
Conditions	mass density, [1] [kg/m3]	refractive index, [2]	viscosity, [1] [mPa·s]
293.15 K, x1 = 0.1036	732.72	–	0.772
293.15 K, x1 = 0.2018	746.84	–	0.836
293.15 K, x1 = 0.3016	761.45	–	0.912
293.15 K, x1 = 0.4042	776.68	–	1.004
293.15 K, x1 = 0.4954	790.42	–	1.109
293.15 K, x1 = 0.6009	806.55	–	1.253
293.15 K, x1 = 0.6984	821.69	–	1.409
293.15 K, x1 = 0.8001	837.66	–	1.635
293.15 K, x1 = 0.8933	852.53	–	1.864
293.15 K, x1 = 1	869.78	–	2.112
298.15 K, x1 = 0.1036	728.87	1.4084	0.725
298.15 K, x1 = 0.2018	743	1.4146	0.781
298.15 K, x1 = 0.3016	757.63	1.4205	0.849
298.15 K, x1 = 0.4042	772.88	1.4273	0.934
298.15 K, x1 = 0.4954	786.63	1.4326	1.028
298.15 K, x1 = 0.6009	802.78	1.4397	1.154
298.15 K, x1 = 0.6984	817.94	1.4459	1.305
298.15 K, x1 = 0.8001	833.93	1.4526	1.505
298.15 K, x1 = 0.8933	848.8	1.4591	1.701
298.15 K, x1 = 1	866.07	1.4662	1.925
303.15 K, x1 = 0.1036	724.99	–	0.681
303.15 K, x1 = 0.2018	739.14	–	0.732
303.15 K, x1 = 0.3016	753.79	–	0.795
303.15 K, x1 = 0.4042	769.06	–	0.871
303.15 K, x1 = 0.4954	782.83	–	0.957
303.15 K, x1 = 0.6009	798.99	–	1.075
303.15 K, x1 = 0.6984	814.17	–	1.213
303.15 K, x1 = 0.8001	830.18	–	1.393
303.15 K, x1 = 0.8933	845.07	–	1.568
303.15 K, x1 = 1	862.34	–	1.769
308.15 K, x1 = 0.1036	721.09	1.4038	0.642
308.15 K, x1 = 0.2018	735.26	1.4105	0.688
308.15 K, x1 = 0.3016	749.94	1.4163	0.746
308.15 K, x1 = 0.4042	765.23	1.423	0.816
308.15 K, x1 = 0.4954	779.01	1.4286	0.893
308.15 K, x1 = 0.6009	795.19	1.435	0.998
308.15 K, x1 = 0.6984	810.39	1.4418	1.127
308.15 K, x1 = 0.8001	826.41	1.4486	1.29
308.15 K, x1 = 0.8933	841.33	1.455	1.447
308.15 K, x1 = 1	858.61	1.4618	1.628
313.15 K, x1 = 0.1036	717.18	–	0.607
313.15 K, x1 = 0.2018	731.37	–	0.65
313.15 K, x1 = 0.3016	746.07	–	0.704
313.15 K, x1 = 0.4042	761.38	–	0.766
313.15 K, x1 = 0.4954	775.18	–	0.838
313.15 K, x1 = 0.6009	791.38	–	0.929
313.15 K, x1 = 0.6984	806.6	–	1.052
313.15 K, x1 = 0.8001	822.64	–	1.202
313.15 K, x1 = 0.8933	837.57	–	1.334
313.15 K, x1 = 1	854.88	–	1.505
318.15 K, x1 = 0.1036	713.25	1.3993	0.576
318.15 K, x1 = 0.2018	727.46	1.406	0.614
318.15 K, x1 = 0.3016	742.18	1.4122	0.663
318.15 K, x1 = 0.4042	757.52	1.4187	0.723
318.15 K, x1 = 0.4954	771.34	1.4249	0.786
318.15 K, x1 = 0.6009	787.56	1.4312	0.869
318.15 K, x1 = 0.6984	802.8	1.4379	0.984
318.15 K, x1 = 0.8001	818.86	1.4445	1.118
318.15 K, x1 = 0.8933	833.81	1.4509	1.241
318.15 K, x1 = 1	851.14	1.4581	1.394
323.15 K, x1 = 0.1036	709.3	–	0.547
323.15 K, x1 = 0.2018	723.54	–	0.583
323.15 K, x1 = 0.3016	738.28	–	0.627
323.15 K, x1 = 0.4042	753.64	–	0.682
323.15 K, x1 = 0.4954	767.48	–	0.742
323.15 K, x1 = 0.6009	783.73	–	0.821
323.15 K, x1 = 0.6984	798.99	–	0.922
323.15 K, x1 = 0.8001	815.08	–	1.041
323.15 K, x1 = 0.8933	830.05	–	1.156
323.15 K, x1 = 1	847.4	–	1.295
